The values below come from US7662856B2, “Compositions having antimycrobial activity including a hydroxamate or a hydroxamate and a hydroxlyamine” (The University of Houston System, priority 2003, dated 2010).

Broadly, the Ki is the dissociation constant of the complex between target and ligand, obtained from inhibition or displacement. Broadly, the inhibition is the change of the read-out against control, counted positive when it falls. Usually melting point stands for the temperature of the solid-liquid transition.

In brackets after ≈: the same amount, converted by molar mass. Where two headings read alike, the source gives them in different places. Where only a bound is given, the exact number is not on record here.

The target of data set [1] is alanine racemase enzyme from P. aeruginosa (Pseudomonas aeruginosa, UniProt Q9HTQ2, A178S/N326M/S138R/S262R). As to the kind of experiment: biochemical. Particulars: for inhibition at 2500 µM: read-out: In % (percent inhibition of alanine racemase).
The target in data set [2] is alanine racemase enzyme from E. Coli (Escherichia coli, UniProt P0A6B4). As to the kind of experiment: biochemical. The note with it: for inhibition at 2500 µM: read-out: In % (percent inhibition of alanine racemase).
Data set [3] has as its system M. tuberculosis. Format: cell-based.
The subject of data set [4] is M. tuberculosis. As to the kind of experiment: microbe, parasite or virus in culture. Format: cell-based. The note with it: Mycobacterium tuberculosis.
The test system of data set [5] is E. Coli. Nature of the data set: microbe, parasite or virus in culture. The format is cell-based. Particulars: Escherichia coli.
For data set [6], the system named is S. aureus. As to the kind of experiment: microbe, parasite or virus in culture. The format is cell-based. Particulars: Staphylococcus aureus.
Data set [7] addresses T1, alanine racemase enzyme from S. aureus (Staphylococcus aureus, UniProt P63479).
T1 sequence (P63479 1-382): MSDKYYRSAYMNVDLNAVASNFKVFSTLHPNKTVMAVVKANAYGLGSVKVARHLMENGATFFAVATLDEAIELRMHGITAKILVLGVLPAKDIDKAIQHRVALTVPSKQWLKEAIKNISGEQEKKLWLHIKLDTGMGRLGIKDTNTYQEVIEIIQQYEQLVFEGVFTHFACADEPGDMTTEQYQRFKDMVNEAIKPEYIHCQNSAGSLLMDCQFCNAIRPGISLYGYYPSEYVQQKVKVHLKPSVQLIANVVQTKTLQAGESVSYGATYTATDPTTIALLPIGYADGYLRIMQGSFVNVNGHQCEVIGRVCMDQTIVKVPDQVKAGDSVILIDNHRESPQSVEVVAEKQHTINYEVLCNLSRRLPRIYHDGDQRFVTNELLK
As to the kind of experiment: biochemical. The note with it: for inhibition at 2500 µM: read-out: In % (percent inhibition of alanine racemase).

Data set [8] concerns the target alanine racemase enzyme from M. tuberculosis (Mycobacterium tuberculosis, UniProt P9WQA9, DEL103-104). The format is biochemical.

Chain of alanine racemase enzyme from M. tuberculosis (P9WQA9 whole entry, looked up, stated change not applied): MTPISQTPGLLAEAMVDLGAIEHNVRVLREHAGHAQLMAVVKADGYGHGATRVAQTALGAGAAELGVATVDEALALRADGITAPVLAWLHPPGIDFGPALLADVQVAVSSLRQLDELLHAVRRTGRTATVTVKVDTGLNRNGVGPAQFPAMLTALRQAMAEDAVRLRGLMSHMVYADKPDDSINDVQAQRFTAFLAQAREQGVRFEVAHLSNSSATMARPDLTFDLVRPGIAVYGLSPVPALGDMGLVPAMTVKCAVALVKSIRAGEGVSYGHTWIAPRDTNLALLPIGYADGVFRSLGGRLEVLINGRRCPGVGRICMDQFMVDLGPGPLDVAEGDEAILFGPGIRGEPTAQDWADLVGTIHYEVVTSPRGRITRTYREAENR
Chain of alanine racemase enzyme from P. aeruginosa (Q9HTQ2 whole entry S138R/A178S/S262R/N326M): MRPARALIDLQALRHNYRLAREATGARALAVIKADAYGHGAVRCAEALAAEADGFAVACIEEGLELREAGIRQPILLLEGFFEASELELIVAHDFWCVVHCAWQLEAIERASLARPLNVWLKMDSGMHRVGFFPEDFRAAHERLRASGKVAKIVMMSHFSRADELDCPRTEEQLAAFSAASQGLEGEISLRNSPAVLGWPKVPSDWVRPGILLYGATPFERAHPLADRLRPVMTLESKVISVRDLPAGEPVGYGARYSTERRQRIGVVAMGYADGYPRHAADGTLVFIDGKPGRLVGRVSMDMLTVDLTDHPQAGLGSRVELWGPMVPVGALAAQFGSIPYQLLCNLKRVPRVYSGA
Chain of alanine racemase enzyme from E. Coli (P0A6B4 whole entry): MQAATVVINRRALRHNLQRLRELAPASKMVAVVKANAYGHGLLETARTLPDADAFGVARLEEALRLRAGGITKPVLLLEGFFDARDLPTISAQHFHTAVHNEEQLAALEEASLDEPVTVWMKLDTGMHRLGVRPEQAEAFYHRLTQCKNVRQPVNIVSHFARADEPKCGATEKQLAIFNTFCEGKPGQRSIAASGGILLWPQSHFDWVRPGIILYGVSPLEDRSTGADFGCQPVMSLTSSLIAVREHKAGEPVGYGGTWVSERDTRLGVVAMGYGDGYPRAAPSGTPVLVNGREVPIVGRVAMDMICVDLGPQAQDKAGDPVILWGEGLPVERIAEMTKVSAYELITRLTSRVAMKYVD

`CNCC(=O)NO` [CH3NHCH2C(O)NHOH, Sarcosine Hydroxamic Acid]: the melting point fell in the range of 140 to 141 °C. Besides, in data set [1], affinity was put at a Ki of 18.2 mM and the inhibition at 2500 µM was 24 ± 5%. Besides, in [2], the affinity corresponds to a Ki of 5.7 mM and the inhibition at 2500 µM turned out to be 34 ± 12%. In addition, in [3], the “Days of Detection” value is 32.5 days. Besides, in data set [4], the MIC was 200 µg/mL (≈ 1920 µM). The MIC in [5] is above 5 mM. This molecule yielded an MIC in data set [6] above 5 mM. In addition, the Ki in [7] (S. aureus ALR, read-out: Ki) amounted to 14.3 mM. In addition, in data set [7], the inhibition at 2500 µM amounted to 28 ± 5%. Besides, in data set [8], the “% In in TB-ALR-assay” value was determined as 81% and the “In % (percent inhibition of alanine racemase)” value stood at 81 ± 7%.

As to `Cl.NCCC(=O)NO` [HCl•H2NCH2CH2C(O)NHOH, β-Alanine Hydroxamic Acid Hydrochloride], the melting point was 140 to 142 °C. In data set [1], the affinity corresponds to a Ki of 0.894 mM and the inhibition at 2500 µM is 34 ± 9%. Further, in data set [2], the Ki is 1.21 mM and the inhibition at 2500 µM amounted to 37 ± 10%. The “Days of Detection” value in data set [3] is 8.5 days. The molecule also displayed an MIC in [4] above 200 µg/mL. Further, the MIC in data set [5] was above 5 mM. The molecule also had an MIC in data set [6] above 5 mM. The molecule also registered a Ki in data set [7] (Ki) of 0.401 mM. The inhibition at 2500 µM in data set [7] turned out to be 49 ± 12%. Also, in data set [8], the “% In in TB-ALR-assay” value came to 79% and the “In % (percent inhibition of alanine racemase)” value was determined as 79 ± 12%.
